In patent publication US20260345635A1, “SPRAY DRIED TREPROSTINIL FORMULATION” (Insmed Incorporated, priority 2023, published 2026):

Experiments:
[1] = In vitro aerosol performance of TPIP from HR RS01 DPI by Next Generation Impactor with breath simulator; type: physicochemical; settings: 30 LPM; for FPD (<5 μm), TP: 16 mg capsule
Experimental: All the experiments in the following examples of present disclosure were performed with the RS01 Model 7 Plastiape (Plastiape S.p.A., Osnago, Italy) high resistance (HR) (code 239700002AA) DPI device for evaluation. The following examples relate to in vitro aerosol performance of the capsules containing 16 and 32 mg TPIP utilizing the HR RS01 Plastiape device in response to more clinically relevant inhalation profiles deviating from the rectangular wave profile. The aerosol performance were evaluated at different inhalation volumes of 4 L, 2 L or 1 L and at a different peak inspiratory flow rate of 60 LPM corresponding to a pressure drop of 4 kPa or 30 LPM corresponding to a pressure drop of 0.89 kPa across the device to reflect a diverse set of user scenarios.
An RS01 Model 7 Plastiape (Plastiape S.p.A., Osnago, Italy) high resistance (HR) (code 239700002AA) DPI device was used for evaluation. The pressure drop across the HR device containing an empty capsule was measured as a function of flow rate between 30 to 100 L/min (LPM).
To evaluate the differences in aerosol performance in response to different breathing profiles, TPIP aerosol emitted from the HR Plastiape device was delivered to the NGI (MSP Corp., Shoreview, MN) at ambient temperatures and low humidity (<45% RH) under various scenarios generated by the breathing simulator (BRS 3100, Copley), as presented in FIG. 1. A mixing inlet (Copley) was attached in between the pre-separator and the induction port to allow a constant flow rate of 30 or 60 LPM to be achieved through the NGI, while varying the change in inhalation profiles from the HR Plastiape device via BRS system. The outlet port of the NGI was connected to a vacuum pump drawing 30 or 60 LPM airflow (X) via a critical flow controller (TPK 2100, Copley), and an airflow of 30 or 60 LPM (Y) was drawn into the mixing inlet to ensure that initially no airflow (X-Y=0) was drawn through the inhaler. Aerosolization of the powder into the NGI was triggered by the BRS system via a diversion valve that redirects the airflow (Y) into the BRS system. For example, if 30 LPM airflow of Y is redirected to the BRS system, this would cause 30 LPM airflow to be drawn through the inhaler and into the mixing inlet. Therefore, the simulated inhalation profile generated by the BRS system is identical to the inhalation profile through the inhaler.
The BRS software was manually programmed through a Word Pad script to simulate inhalation acceleration rates of 20, 5.88, 2, 1, and 0.5 L/sec^2 corresponding to 50, 170, 500, 1000, and 2000 millisecond (ms) ramp times for a total inhaled volume of 4 L, and for 2 and 1 L inhalation volumes at both extreme acceleration rates to achieve the 60 LPM flow rate. Additionally, the breathing profile scripts for the 1, 2, and 4 L inhalation volumes at 20 and 0.5 L/s^2 (corresponding to 50 and 2000 ms ramp times) to reach the 30 LPM flow rate are included. A trapezoidal waveform was used to maintain the 4 L total inhalation volume as well as to keep the maximum inhalation flow rate at 60 LPM corresponding to the 4 kPa pressure drop across the device (FIG. 2A). Additionally, the breathing profiles with reduced inhalation volumes of 1 and 2 L were evaluated at the two extreme acceleration rates of 20 and 0.5 L/s^2 (corresponding to 50 and 2000 ms ramp times) for the 60 LPM inspiratory flow rate (FIG. 2B), and 25 and 1000 ms ramp times for the 30 LPM inspiratory flow rate (FIG. 2C).
The aerosol performance of each inhalation profile was characterized for TP with respect to its emitted dose (ED), mass median aerodynamic diameter (MMAD), geometric standard deviation (GSD), fine particle fraction<5 μm (FPF) and fine particle dose<5 μm (FPD) as described below. The total recovery of TP was also measured to provide assurance that each experiment was conducted acceptably. […]

[2] = Aerosol performance of TPIP by NGI with four RS01 devices of different resistance; type: physicochemical
Experimental: FIGS. 8A-8C are graphs showing TP Fine Particle Fraction (FPF) (FIG. 8A); Fine Particle Dose (FPD) as a Function of Device Resistance for the 8 mg (blue), 16 mg (orange), and 32 mg (gray) Capsule Dose (FIG. 8B); and TP FPD as a Function of Capsule Dose for Each Device (FIG. 8C). Trend lines are only shown for the UHR and HR DPIs in FIG. 8C. The ultra-high resistance (UHR), the high resistance (HR), the medium resistance (MR) and the low resistance (LR) devices were tested at 40, 60, 85 and 100 LPM, respectively.
The aerosolized composition is administered to a patient in need of treatment of PH, e.g., PAH or PH associated with interstitial lung disease (PH-ILD). In one embodiment, the aerosolized composition is administered to a patient in need of treatment of pulmonary fibrosis (e.g., PH-ILD where the ILD is pulmonary fibrosis). The aerosolized composition can be characterized by certain parameters known to those of skill in the art, such as fine particle fraction (FPF), fine particle dose (FPD), emitted dose (ED), mass median aerodynamic diameter (MMAD) and/or particle size and distribution. In embodiments, these parameters are measured by NGI. In embodiments, the NGI uses a flow rate corresponding to a 3 kPa to 4.5 kPa air pressure drop relative the resistance of the DPI. In embodiments, the pressure drop is 4 kPa. For example, the performance of an ultra high resistance (UHR), high resistance (HR) and medium resistance (MR) devices may be evaluated by drawing 4 L of air through the DPI at a flow rate of 40, 60 and 85 LPM, respectively, corresponding to the 4 kPa air pressure drop. Aerosol characterization data for the above-noted parameters can be compared across different DPI devices (with different resistances). In embodiments, the mean inhaler resistance of a high resistance DPI used to achieve the parameters described herein ranges from 0.025 to 0.040 kPA^1/2 (L/min^−1)^−1. In embodiments, the mean inhaler resistance of a high resistance DPI used to achieve the parameters described herein ranges from 0.030 to 0.040 kPA^1/2 (L/min^−1)^−1. In embodiments, the mean inhaler resistance of a high resistance DPI used to achieve the parameters described herein ranges from about 0.034 to about 0.036 kPA^1/2 (L/min^−1)^−1.
Four Plastiape RS01 Model 7 DPIs (Plastiape S. p.A., Osnago, Italy) differ with respect to their device resistance: Ultra-high Resistance (UHR, code 239700005AA), High Resistance (HR, code 239700002AA), Medium Resistance (MR, code 239700006AA) and Low Resistance (LR, code 239700001AB). The pressure drop across each device containing an empty capsule was measured as a function of flow rate between 30 and 120 L/min (LPM). The present disclosure teaches that the high resistance DPI device is selected for evaluation and use. A peak inspiratory flow rate of 80 LPM, 60 LPM, 40 LPM, or 30 LPM corresponds to a pressure drop of 5.4 kPa, 4 kPa, 1.4 kPa, or 0.89 kPa, respectively, for the high resistance DPI.
In this Example, Applicant investigated the aerosol performance of TPIP in response to changes in capsule fill, device resistance, and inspiratory flow rate to enable selection of an inhaler for clinical use. Capsules containing 8, 16 or 32 mg of TPIP (80, 160, or 320 μg TP, respectively) were evaluated using four breath-actuated RS01 devices with low, medium, high or ultra-high inspiratory resistances, creating 12 different capsule and device configurations for evaluation.
The TP aerosol particle size distribution profiles for the UHR, HR, MR, and LR DPI devices are shown in FIGS. 7A-7C for the 8, 16 and 32 mg TPIP capsules, respectively. The TP aerosol particle size distribution profiles are polydisperse for the LR, MR and HR devices with the UHR device showing a trend towards a less polydisperse profile. The values for the total mass recoveries, emitted dose, MMAD, GSD, FPF, and FPD for the UHR, HR, MR, and LR devices loaded with 8, 16 and 32 mg TPIP capsules are shown in Table 5.

[3] = 16 mg capsule, all four devices
[4] = 32 mg capsule, LR device, 100 LPM
[5] = 32 mg capsule, MR device (printed MA), 85 LPM

CCCCCCCCCCCCCCCCOC(=O)COc1cccc2c1C[C@H]1C[C@@H](O)[C@H](CC[C@@H](O)CCCCC)[C@H]1C2 [TP, treprostinil palmitil]
ED ([1]; 16 mg capsule, 1, 2, 4 L, 25 ms ramp): 76% | emitted doses ([1]; 16 mg capsule, 1, 2, 4 L, 1000 ms ramp): 72-75% | FPD (<5 μm), TP ([1]; 25 ms ramp, 1 L): 93 µg | FPD (<5 μm), TP ([1]; 25 ms ramp, 4 L): 92 µg | FPD (<5 μm), TP ([1]; 1000 ms ramp, 1 L): 87 µg | FPD (<5 μm), TP ([1]; 1000 ms ramp, 4 L): 90 µg | FPD [2, 3]: 98 to 104 µg | FPF [2, 3]: 71-81% | FPD (<5 μm), TP [2, 4]: 155 µg | FPF (<5 μm) [2, 4]: 58% | FPD (<5 μm), TP [2, 5]: 168 µg | FPF (<5 μm) [2, 5]: 62% | FPD ([2]; 32 mg capsule, UHR and HR devices): 197 to 200 µg | FPF ([2]; 32 mg capsule, all four devices): 58-76%
